Compound: CCCS(=O)(=O)Nc1ccc(F)c(C(=O)c2c[nH]c3ncc(-c4ccc(Cl)cc4)cc23)c1F [Vemurafenib] + Nc1nc2[nH]cc(CCc3ccc(C(=O)N[C@@H](CCC(=O)O)C(=O)O)cc3)c2c(=O)[nH]1 [Pemetrexed] (partner 0.2 µM)
Experiment: relative viability (nuclei count vs DMSO), 5 days (fraction); higher = more cells survive
Conditions: first compound 0.03162 µM
Outline: (§1)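 Five library-drug doses in √10 steps were combined with a fixed anchor-drug dose, or a single drug was given alone, by pin tool to lung cancer cell lines in 1536-well plates the day after seeding. Nuclei were stained and counted after 5 days. Relative viability is the nuclei count in treated wells over that in vehicle wells, taken as the median of duplicate plates.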

Cell Line	relative viability
NCI-H2126	0.627
EPLC-272H	0.319
NCI-H1755	0.512
NCI-H2023	0.229
NCI-H1650	0.343
NCI-H1793	0.797
NCI-H2342	0.75
H3255	0.551
NCI-H1975	0.285
PC-14	0.147
NCI-H1437	0.327
HOP-62	0.368
HCC-44	0.617
BEN	0.627
LOU-NH91	0.372
NCI-H661	1.01

Cell Line	relative viability
NCI-H1651	0.555
SW 1573	0.872
LK-2	0.247
NCI-H2405	1.02
NCI-H1993	0.67
ChaGo-K-1	0.247
NCI-H1355	1.03
HCC-366	0.178
NCI-H1915	0.493
NCI-H838	0.252
NCI-H2170	0.272
NCI-H522	0.855
NCI-H1563	0.708
NCI-H1792	0.59
SW 900	0.494

Same assay, conditions: first compound 0.1 µM

Cell Line	relative viability
NCI-H2126	0.662
EPLC-272H	0.336
NCI-H1755	0.453
NCI-H2023	0.2
NCI-H1650	0.316
NCI-H1793	0.602
NCI-H2342	0.834
NCI-H1975	0.284
NCI-H1437	0.294
HOP-62	0.318
HCC-44	0.609
BEN	0.832
LOU-NH91	0.464
NCI-H661	0.929
NCI-H1651	0.626
SW 1573	0.777
LK-2	0.274
NCI-H2405	0.977
NCI-H1648	0.671
ChaGo-K-1	0.267
NCI-H1355	0.961
HCC-366	0.166
NCI-H1915	0.494
NCI-H838	0.235
NCI-H522	0.98
NCI-H1563	0.627
NCI-H1792	0.787
SW 900	0.466

Same assay, conditions: first compound 0.3162 µM

Cell Line	relative viability
NCI-H2126	0.684
EPLC-272H	0.396
NCI-H1755	0.422
NCI-H2023	0.207
NCI-H1650	0.343
NCI-H1793	0.749
NCI-H2342	0.684
H3255	0.515
NCI-H1975	0.262
PC-14	0.126
NCI-H1437	0.312
HOP-62	0.208
HCC-44	0.654
BEN	0.445
LOU-NH91	0.337
NCI-H661	0.978
NCI-H1651	0.508
PC-3 [JPC-3]	0.92
SW 1573	0.798
LK-2	0.26
NCI-H1648	1.01
NCI-H1993	0.642
ChaGo-K-1	0.261
NCI-H1355	1.02
NCI-H1915	0.434
NCI-H838	0.338
NCI-H2170	0.265
NCI-H522	0.867
NCI-H1563	0.681
SW 900	0.457

Same assay, conditions: first compound 1 µM

Cell Line	relative viability
NCI-H2126	0.777
EPLC-272H	0.328
NCI-H1755	0.398
NCI-H2023	0.278
NCI-H1650	0.351
NCI-H1793	1.12
NCI-H2342	0.784
H3255	0.566
NCI-H1975	0.299
PC-14	0.134
NCI-H1437	0.32
HOP-62	0.354
HCC-44	0.625
BEN	0.619
LOU-NH91	0.382
NCI-H661	0.929
NCI-H1651	0.579

Cell Line	relative viability
PC-3 [JPC-3]	1.25
SW 1573	0.832
LK-2	0.304
NCI-H2405	1.17
NCI-H1648	0.748
NCI-H1993	0.628
ChaGo-K-1	0.274
NCI-H1355	1.04
HCC-366	0.151
NCI-H1915	0.454
NCI-H838	0.272
NCI-H2170	0.289
NCI-H522	1.2
NCI-H1563	0.65
NCI-H1792	0.747
SW 900	0.478

Compound: COc1cccc2cc(-c3nc([C@H]4CC[C@H](C(=O)O)CC4)n4ncnc(N)c34)[nH]c12 [OSI-027] + C[C@]1(O)C[C@@H](c2nc(-c3ccc4ccc(-c5ccccc5)nc4c3)c3c(N)nccn32)C1 [Linsitinib] (partner 1 µM)
Experiment: as above
Conditions: first compound 0.01 µM
Outline: as §1

Cell Line	relative viability
NCI-H2126	0.739
EPLC-272H	1.08
NCI-H1755	0.976
NCI-H2023	0.622
NCI-H1793	1.04
H3255	0.943
NCI-H1975	1.09
PC-14	0.944
NCI-H1299	0.969
NCI-H1437	0.962
HOP-62	0.952
HCC-44	0.646
BEN	0.923
LOU-NH91	0.954
NCI-H661	0.511
NCI-H1651	0.938
PC-3 [JPC-3]	0.943

Cell Line	relative viability
SW 1573	0.777
LK-2	0.523
NCI-H2405	0.871
NCI-H1703	0.381
NCI-H1993	0.684
NCI-H1355	0.759
HCC-366	0.632
NCI-H1915	1.11
NCI-H838	0.819
ABC-1	0.768
Calu-6	0.959
NCI-H1563	1.13
NCI-H1792	0.466
NCI-H727	0.239
EBC-1	0.901
A549	0.582
IA-LM	0.31

Same assay, conditions: first compound 0.03162 µM

Cell Line	relative viability
NCI-H2126	0.593
EPLC-272H	1.05
NCI-H1755	1.05
NCI-H2023	0.507
NCI-H1793	0.875
H3255	1
NCI-H1975	1.03
PC-14	0.946
NCI-H1299	0.94
NCI-H1437	0.6
HOP-62	1.2
HCC-44	0.628
BEN	0.613
LOU-NH91	0.902
NCI-H661	0.334
PC-3 [JPC-3]	1.01
SW 1573	0.712

Cell Line	relative viability
LK-2	0.184
NCI-H2405	0.81
NCI-H1703	0.788
NCI-H1993	0.777
NCI-H1355	0.687
HCC-366	0.713
NCI-H1915	1.13
NCI-H838	0.584
ABC-1	0.749
Calu-6	0.87
NCI-H1563	1.21
NCI-H1792	0.237
NCI-H727	0.344
EBC-1	0.886
A549	0.479
IA-LM	0.383

Same assay, conditions: first compound 0.1 µM

Cell Line	relative viability
NCI-H2126	0.536
EPLC-272H	1.12
NCI-H1755	1.02
NCI-H2023	0.566
NCI-H1793	0.612
H3255	0.929
NCI-H1975	0.822
PC-14	0.891
NCI-H1299	0.889
NCI-H1437	0.702
HOP-62	1.04
HCC-44	0.584
BEN	0.627
LOU-NH91	0.808
NCI-H661	0.521
NCI-H1651	0.801
PC-3 [JPC-3]	0.971

Cell Line	relative viability
SW 1573	0.771
LK-2	0.396
NCI-H2405	0.702
NCI-H1703	0.767
NCI-H1993	0.703
NCI-H1355	0.643
HCC-366	0.64
NCI-H1915	1.12
NCI-H838	0.456
ABC-1	0.58
Calu-6	0.864
NCI-H1563	1.1
NCI-H1792	0.394
NCI-H727	0.281
EBC-1	0.916
A549	0.372
IA-LM	0.41

Same assay, conditions: first compound 0.3162 µM

Cell Line	relative viability
NCI-H2126	0.416
EPLC-272H	0.866
NCI-H1755	0.885
NCI-H2023	0.292
NCI-H1793	0.225
H3255	0.825
NCI-H1975	0.706
PC-14	0.914
NCI-H1299	0.773
NCI-H1437	0.292
HOP-62	0.712
HCC-44	0.452
BEN	0.384
LOU-NH91	0.69
NCI-H661	0.364
NCI-H1651	0.514
PC-3 [JPC-3]	0.867

Cell Line	relative viability
SW 1573	0.586
LK-2	0.289
NCI-H2405	0.404
NCI-H1703	0.48
NCI-H1993	0.603
NCI-H1355	0.374
HCC-366	0.445
NCI-H1915	1.02
NCI-H838	0.305
ABC-1	0.32
Calu-6	0.673
NCI-H1563	0.929
NCI-H1792	0.229
NCI-H727	0.229
EBC-1	0.78
A549	0.263
IA-LM	0.263

Same assay, conditions: first compound 1 µM

Cell Line	relative viability
NCI-H2126	0.701
EPLC-272H	0.961
NCI-H1755	0.392
NCI-H2023	0.143
NCI-H1793	0.188
H3255	0.452
NCI-H1975	0.339
PC-14	0.582
NCI-H1299	0.635
NCI-H1437	0.155
HOP-62	0.359
HCC-44	0.195
BEN	0.271
LOU-NH91	0.521
NCI-H661	0.269
NCI-H1651	0.285
PC-3 [JPC-3]	0.834

Cell Line	relative viability
SW 1573	0.462
LK-2	0.138
NCI-H2405	0.393
NCI-H1703	0.56
NCI-H1993	0.681
NCI-H1355	0.218
HCC-366	0.0575
NCI-H1915	0.863
NCI-H838	0.254
ABC-1	0.316
Calu-6	0.504
NCI-H1563	0.677
NCI-H1792	0.22
NCI-H727	0.264
EBC-1	0.419
A549	0.0989
IA-LM	0.131

Compound: COc1cccc2cc(-c3nc([C@H]4CC[C@H](C(=O)O)CC4)n4ncnc(N)c34)[nH]c12 [OSI-027] + Cc1nc(NC(=O)N2CCC[C@H]2C(N)=O)sc1-c1ccnc(C(C)(C)C(F)(F)F)c1 [Alpelisib] (partner 2 µM)
Experiment: as above
Conditions: first compound 0.01 µM
Outline: as §1

Cell Line	relative viability
NCI-H2126	0.764
EPLC-272H	0.889
NCI-H1755	0.92
NCI-H2023	0.608
NCI-H1793	0.831
H3255	0.589
NCI-H1975	0.659
PC-14	0.855
NCI-H1299	1.11
NCI-H1437	1
HOP-62	1.13
HCC-44	0.795
BEN	1.02
LOU-NH91	0.692
NCI-H661	0.482
NCI-H1651	1.1
PC-3 [JPC-3]	1.06
SW 1573	0.738
LK-2	1.18
NCI-H2405	0.783
NCI-H1703	0.32
NCI-H1993	0.647
NCI-H1355	0.764
HCC-366	0.373
NCI-H1915	1.11

Source: the supplement of paper PMC10307832
